According to PubChem BioAssay AID330 (DTP/NCI, 2004):
Several values for one entry are separate records, joined by “and”; a condition that tells them apart may be missing. Identical values can stand only once. Inconclusive results and toxic doses are left out. Rule for the calls: active = survival T/C of 150% or more; inactive = T/C below 125% in these data.

Tested on: P388 leukemia ip, CD2F1 mice, survival T/C
Assay: NCI In Vivo Anticancer Drug Screen. Data for tumor model P388 Leukemia (intraperitoneal) in CD2F1 (CDF1) mice
Conditions: endpoint: median survival time, higher = longer survival
Outline: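 Mice carrying the transplanted tumor received test compound or vehicle. Survival was recorded in each group, and the value is the treated-group measurement divided by that of the vehicle-treated control group.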

[1] = dose: 50.0 mg/kg/injection, schedule: Q01DX005 (ip), vehicle: Klucel (hydroxypropylcellulose) (HPC)
[2] = dose: 100.0 mg/kg/injection, schedule: Q01DX005 (ip), vehicle: Klucel (hydroxypropylcellulose) (HPC)
[3] = dose: 200.0 mg/kg/injection, schedule: Q01DX005 (ip), vehicle: Klucel (hydroxypropylcellulose) (HPC)
[4] = dose: 25.0 mg/kg/injection, schedule: Q01DX009 (ip), vehicle: saline with Tween-80
[5] = dose: 25.0 mg/kg/injection, schedule: Q04DX003 (ip), vehicle: saline
[6] = dose: 50.0 mg/kg/injection, schedule: Q01DX009 (ip), vehicle: saline with Tween-80
[7] = dose: 50.0 mg/kg/injection, schedule: Q04DX003 (ip), vehicle: saline
[8] = dose: 100.0 mg/kg/injection, schedule: Q01DX009 (ip), vehicle: saline with Tween-80
[9] = dose: 100.0 mg/kg/injection, schedule: Q04DX003 (ip), vehicle: saline
[10] = dose: 60.0 mg/kg/injection, schedule: Q01DX005 (ip), vehicle: Klucel (hydroxypropylcellulose) (HPC)
[11] = dose: 120.0 mg/kg/injection, schedule: Q01DX005 (ip), vehicle: Klucel (hydroxypropylcellulose) (HPC)
[12] = dose: 240.0 mg/kg/injection, schedule: Q01DX005 (ip), vehicle: Klucel (hydroxypropylcellulose) (HPC)
[13] = dose: 60.0 mg/kg/injection, schedule: Q01DX005 (ip), vehicle: saline with Tween-80
[14] = dose: 60.0 mg/kg/injection, schedule: Q01DX005 (ip), vehicle: saline
[15] = dose: 200.0 mg/kg/injection, schedule: Q01DX009 (ip), vehicle: saline with Tween-80
[16] = dose: 50.0 mg/kg/injection, schedule: Q01DX009 (ip), vehicle: saline
[17] = dose: 100.0 mg/kg/injection, schedule: Q01DX009 (ip), vehicle: saline
[18] = dose: 50.0 mg/kg/injection, schedule: Q01DX009 (ip), vehicle: Klucel (hydroxypropylcellulose) (HPC)
[19] = dose: 100.0 mg/kg/injection, schedule: Q01DX009 (ip), vehicle: Klucel (hydroxypropylcellulose) (HPC)
[20] = dose: 200.0 mg/kg/injection, schedule: Q01DX009 (ip), vehicle: Klucel (hydroxypropylcellulose) (HPC)

Measured: T/C

N#CN.[Pb]
inactive: dose: 25.0 mg/kg/injection, schedule: Q01DX005 (ip), vehicle: Klucel (hydroxypropylcellulose) (HPC) 115 % of control and 94 % of control | [1] 101 % of control (2×) and 104 % of control | [2] 107 % of control and 109 % of control and 110 % of control | [3] 111 % of control

O=[N+]([O-])c1cccc(C(O)C=C(C(F)(F)F)C(F)(F)F)c1 (centres undefined)
inactive: [4] 100 % of control | [5] 100 % of control | dose: 33.0 mg/kg/injection, schedule: Q01DX009 (ip), vehicle: saline with Tween-80 109 % of control | [6] 113 % of control | [7] 95 % of control | dose: 75.0 mg/kg/injection, schedule: Q01DX009 (ip), vehicle: saline with Tween-80 113 % of control | [8] 113 % of control | [9] 100 % of control

CCCCCC(O)C1C(=O)OC(C)C(O)/C=C/C=C/C=C/C=C/C=C(\C)C(O)C(O)C(O)CC(O)CC(O)CC(O)CC(O)CC1O (centres undefined)
inactive: dose: 0.5 mg/kg/injection, schedule: Q01DX010 (ip), vehicle: saline 100 % of control | dose: 1.0 mg/kg/injection, schedule: Q01DX010 (ip), vehicle: saline 100 % of control | dose: 2.0 mg/kg/injection, schedule: Q01DX010 (ip), vehicle: saline 100 % of control and 90 % of control | dose: 4.0 mg/kg/injection, schedule: Q01DX010 (ip), vehicle: saline 90 % of control | dose: 8.0 mg/kg/injection, schedule: Q01DX010 (ip), vehicle: saline 100 % of control

O=C(O)/C=C/S(=O)(=O)c1ccc(Cl)cc1
inactive: dose: 5.0 mg/kg/injection, schedule: Q01DX009 (ip), vehicle: Klucel (hydroxypropylcellulose) (HPC) 89 % of control | dose: 10.0 mg/kg/injection, schedule: Q01DX009 (ip), vehicle: Klucel (hydroxypropylcellulose) (HPC) 98 % of control | dose: 20.0 mg/kg/injection, schedule: Q01DX009 (ip), vehicle: Klucel (hydroxypropylcellulose) (HPC) 96 % of control | dose: 40.0 mg/kg/injection, schedule: Q01DX009 (ip), vehicle: Klucel (hydroxypropylcellulose) (HPC) 99 % of control

Cc1cc2c(=O)cc(-c3ccc(Cl)cc3)oc2c(C#N)c1C
inactive: [10] 89 % of control | [11] 93 % of control | [12] 100 % of control

CCOC(=O)c1ccc(NC(=O)Oc2ccccc2C(=O)OC)cc1
inactive: [13] 100 % of control | dose: 120.0 mg/kg/injection, schedule: Q01DX005 (ip), vehicle: saline with Tween-80 100 % of control | dose: 240.0 mg/kg/injection, schedule: Q01DX005 (ip), vehicle: saline with Tween-80 95 % of control

CCCn1cnc2c(=S)nc[nH]c21
inactive: [4] 86 % of control | [6] 90 % of control | [8] 109 % of control

COc1cc(C)ccc1C1=NC(C)(c2ccc(C)cc2OC)NC1=S (centres undefined)
inactive: dose: 37.5 mg/kg/injection, schedule: Q01DX009 (ip), vehicle: Klucel (hydroxypropylcellulose) (HPC) 124 % of control | dose: 75.0 mg/kg/injection, schedule: Q01DX009 (ip), vehicle: Klucel (hydroxypropylcellulose) (HPC) 120 % of control

O=c1[nH]cc(CSc2ncc[nH]2)c(=O)[nH]1
inactive: dose: 30.0 mg/kg/injection, schedule: Q01DX005 (ip), vehicle: saline 119 % of control | [13] 119 % of control | [14] 124 % of control

C=CCSc1cccc2ccccc12
inactive: [6] 100 % of control | [8] 109 % of control

NC(=S)NC(=O)c1cccs1
inactive: [6] 95 % of control | [8] 94 % of control | [15] 93 % of control

O=C(O)CC(CC(=O)N(CCP(c1ccccc1)c1ccccc1)CCP(c1ccccc1)c1ccccc1)C(=O)O (centres undefined) (tested in a mixture with another compound)
inactive: [16] 111 % of control | [17] 111 % of control | dose: 100.0 mg/kg/injection, schedule: Q04DX003 (ip), vehicle: Klucel (hydroxypropylcellulose) (HPC) 99 % of control | dose: 200.0 mg/kg/injection, schedule: Q01DX009 (ip), vehicle: saline 112 % of control | dose: 200.0 mg/kg/injection, schedule: Q04DX003 (ip), vehicle: Klucel (hydroxypropylcellulose) (HPC) 101 % of control | dose: 400.0 mg/kg/injection, schedule: Q04DX003 (ip), vehicle: Klucel (hydroxypropylcellulose) (HPC) 97 % of control

O=C(Nc1cc(Cl)c([N+](=O)[O-])cc1O)c1ccco1
inactive: [18] 106 % of control | [19] 99 % of control | [20] 98 % of control

CC(C)N(CCCOC(=O)c1ccc(N)cc1)C(C)C
inactive: dose: 25.0 mg/kg/injection, schedule: Q01DX009 (ip), vehicle: saline 100 % of control | [5] 100 % of control | [16] 100 % of control | [7] 91 % of control | [17] 100 % of control | [9] 100 % of control

O=c1c(CO)c(-c2ccccc2)sc2ccccc12
inactive: [10] 96 % of control | [11] 97 % of control | [12] 95 % of control

CN(C)c1ccc(N(C)C)c(C(O)(c2ccccc2)c2ccccc2)c1
inactive: [6] 88 % of control

CC1(C)N2c3ccc(Cl)cc3C(c3ccccc3)N1c1ccc(Cl)cc1C2c1ccccc1 (centres undefined)
inactive: [18] 98 % of control | [19] 95 % of control | [20] 95 % of control

COC(=O)CCC(Cl)(Cl)Cl
inactive: [18] 102 % of control | [19] 102 % of control | [20] 100 % of control

CC1=C(C#N)C(=O)NC1(C)O (centres undefined)
inactive: [1] 98 % of control and 95 % of control | [2] 100 % of control | [3] 100 % of control and 101 % of control

O=c1nc2scc(-c3ccccc3)n2c2sc3c(c12)CCCC3
inactive: dose: 100.0 mg/kg/injection, schedule: Q01DX001 (ip), vehicle: saline with Tween-80 106 % of control | dose: 200.0 mg/kg/injection, schedule: Q01DX001 (ip), vehicle: saline with Tween-80 95 % of control | dose: 400.0 mg/kg/injection, schedule: Q01DX001 (ip), vehicle: saline with Tween-80 93 % of control

CCCCCCCCCCCCOC(=O)c1ccc(I)cc1
inactive: [6] 97 % of control | [8] 97 % of control | [15] 102 % of control

O=[N+]([O-])c1ccc(OC2OCC(O)C(O)C2O)cc1 (centres undefined)
inactive: [14] 97 % of control | dose: 120.0 mg/kg/injection, schedule: Q01DX005 (ip), vehicle: saline 88 % of control | dose: 240.0 mg/kg/injection, schedule: Q01DX005 (ip), vehicle: saline 89 % of control

CC(SC(=O)c1ccccc1)(SC(=O)c1ccccc1)c1ccccc1
inactive: [18] 94 % of control | [19] 95 % of control | [20] 93 % of control

O=C(O)[C@@H]1[C@H]2C[C@H]3c4[nH]c5ccccc5c4CCN3C[C@@H]2CC[C@@H]1O
inactive: dose: 25.0 mg/kg/injection, schedule: Q01DX009 (ip), vehicle: Klucel (hydroxypropylcellulose) (HPC) 87 % of control | [18] 88 % of control | [19] 100 % of control | [20] 101 % of control
